Test results: PubChem BioAssay AID328 (DTP/NCI, 2004)
Inconclusive results and toxic doses are left out.

Test system: BDF1 mice, P388 leukemia ip, median survival T/C
Assay: NCI In Vivo Anticancer Drug Screen. Data for tumor model P388 Leukemia (intraperitoneal) in B6D2F1 (BDF1) mice
Conditions: endpoint: median survival time, higher = longer survival
How it was run: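 In tumour-bearing mice, survival after compound treatment is set against the vehicle group and given as a quotient.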

[1] = dose: 100.0 mg/kg/injection, schedule: Q04DX003 (ip), vehicle: saline with Tween-80
[2] = dose: 200.0 mg/kg/injection, schedule: Q04DX003 (ip), vehicle: saline with Tween-80
[3] = dose: 400.0 mg/kg/injection, schedule: Q04DX003 (ip), vehicle: saline with Tween-80
[4] = dose: 100.0 mg/kg/injection, schedule: Q01DX009 (ip), vehicle: saline with Tween-80
[5] = dose: 200.0 mg/kg/injection, schedule: Q01DX009 (ip), vehicle: saline with Tween-80

O=C(O)CCC(=O)Nc1cccc(Oc2ccc([N+](=O)[O-])cc2[N+](=O)[O-])c1
T/C (dose: 100.0 mg/kg/injection, schedule: Q04DX003 (ip), vehicle: other): 95 % of control | T/C (dose: 200.0 mg/kg/injection, schedule: Q01DX009 (ip), vehicle: Klucel (hydroxypropylcellulose) (HPC)): 113 % of control | T/C (dose: 200.0 mg/kg/injection, schedule: Q04DX003 (ip), vehicle: other): 100 % of control | T/C (dose: 400.0 mg/kg/injection, schedule: Q01DX009 (ip), vehicle: Klucel (hydroxypropylcellulose) (HPC)): 109 % of control | T/C (dose: 400.0 mg/kg/injection, schedule: Q04DX003 (ip), vehicle: other): 100 % of control

CCN(CC)Cc1c(C)[nH]c2c(OC)cccc2c1=O
T/C (dose: 6.25 mg/kg/injection, schedule: Q01DX009 (ip), vehicle: water): 97 % of control | T/C (dose: 6.25 mg/kg/injection, schedule: Q04DX003 (ip), vehicle: water): 98 % of control | T/C (dose: 12.5 mg/kg/injection, schedule: Q01DX009 (ip), vehicle: water): 99 % of control | T/C (dose: 12.5 mg/kg/injection, schedule: Q04DX003 (ip), vehicle: water): 91 % of control | T/C (dose: 25.0 mg/kg/injection, schedule: Q01DX009 (ip), vehicle: water): 106 % of control | T/C (dose: 25.0 mg/kg/injection, schedule: Q04DX003 (ip), vehicle: water): 105 % of control | T/C (dose: 50.0 mg/kg/injection, schedule: Q01DX009 (ip), vehicle: water): 97 % of control | T/C (dose: 50.0 mg/kg/injection, schedule: Q04DX003 (ip), vehicle: water): 100 % of control | T/C (dose: 100.0 mg/kg/injection, schedule: Q01DX009 (ip), vehicle: water): 108 % of control | T/C (dose: 100.0 mg/kg/injection, schedule: Q04DX003 (ip), vehicle: water): 105 % of control

CC(C)C1=CC23CCC4C(C)(C(N)=O)CCCC4(C)C2CC1C1C(=O)OC(=O)C13 (centres undefined)
T/C (dose: 12.5 mg/kg/injection, schedule: Q01DX001 (ip), vehicle: saline with Tween-80): 100 % of control | T/C (dose: 25.0 mg/kg/injection, schedule: Q01DX001 (ip), vehicle: saline with Tween-80): 108 % of control | T/C (dose: 50.0 mg/kg/injection, schedule: Q01DX001 (ip), vehicle: saline with Tween-80): 104 % of control

CC1=CC=CC(=O)C1(C)C(Cl)Cl (centres undefined)
T/C [1]: 110 % of control | T/C [2]: 115 % of control | T/C [3]: 120 % of control

CC(C)C(Br)C(=O)NCC(=O)NCC(=O)O (centres undefined)
T/C [1]: 104 % of control | T/C [2]: 109 % of control | T/C [3]: 100 % of control

CC(O)C(NCNC(=O)C1=C(O)C2(O)C(=O)C3=C(O)c4c(O)cccc4C(C)(O)C3CC2C(N(C)C)C1=O)C(=O)O (centres undefined)
T/C [4]: 91 % of control | T/C [5]: 100 % of control | T/C (dose: 400.0 mg/kg/injection, schedule: Q01DX009 (ip), vehicle: saline with Tween-80): 87 % of control

Cc1cccnc1NS(=O)(=O)c1ccccc1
T/C [1]: 100 % of control | T/C [2]: 104 % of control | T/C [3]: 108 % of control

O=C(CC(O)(C(F)(F)F)C(F)(F)F)c1ccc(Cl)cc1
T/C (dose: 50.0 mg/kg/injection, schedule: Q01DX009 (ip), vehicle: saline with Tween-80): 108 % of control | T/C [4]: 95 % of control | T/C [5]: 108 % of control

O=c1cc[nH]c(=O)o1
T/C (dose: 19.0 mg/kg/injection, schedule: Q01DX009 (ip), vehicle: water): 157 % of control | T/C (dose: 28.0 mg/kg/injection, schedule: Q01DX009 (ip), vehicle: water): 169 % of control | T/C (dose: 42.0 mg/kg/injection, schedule: Q01DX009 (ip), vehicle: water): 168 % of control | T/C (dose: 63.0 mg/kg/injection, schedule: Q01DX009 (ip), vehicle: water): 94 % of control

CCCCOCCN1CCN(CCCN2c3ccccc3Sc3ccc(C(F)(F)F)cc32)CC1
T/C (dose: 12.5 mg/kg/injection, schedule: Q04DX003 (ip), vehicle: saline): 111 % of control | T/C (dose: 25.0 mg/kg/injection, schedule: Q04DX003 (ip), vehicle: saline): 112 % of control | T/C (dose: 50.0 mg/kg/injection, schedule: Q04DX003 (ip), vehicle: saline): 153 % of control

COc1ccc(N2c3ccccc3-c3cc[nH]c(=O)c3[C@H]2O)cc1OC
T/C (dose: 37.5 mg/kg/injection, schedule: Q01DX009 (ip), vehicle: Klucel (hydroxypropylcellulose) (HPC)): 119 % of control | T/C (dose: 75.0 mg/kg/injection, schedule: Q01DX006 (ip), vehicle: Klucel (hydroxypropylcellulose) (HPC)): 114 % of control | T/C (dose: 75.0 mg/kg/injection, schedule: Q01DX009 (ip), vehicle: Klucel (hydroxypropylcellulose) (HPC)): 106 % of control | T/C (dose: 150.0 mg/kg/injection, schedule: Q01DX009 (ip), vehicle: Klucel (hydroxypropylcellulose) (HPC)): 163 % of control
